logD data for ten compounds are collected here from the SangsterLogP compilation.

A short description of the series: method code SF-AS, from DOI: 10.1016/j.jct.2013.01.022. The following applies: pH 7.4.
In general, logD refers to lipophilicity at a set pH, counting ionised and neutral species. A low value points to a more hydrophilic compound. The compound `CC(=O)c1ccc(NC2=NCCC3(CCCCC3)S2)cc1` showed a pH-dependent lipophilicity (logD) of 1.89. Compound `O=C(NC1=NCCC2(CCCCC2)S1)c1ccccc1` had a logD of 1.55. To `FC(F)(F)c1ccc(NC2=NCCC3(CCCCC3)S2)cc1` belongs 2.45.

Consider `Clc1ccc(NC2=NCCC3(CCCCC3)S2)cc1`, for which the pH-dependent lipophilicity (logD) is 2.4. `CCc1ccc(NC2=NCCC3(CCCCC3)S2)cc1` came in with a logD of 2.22. `Cc1ccc(NC2=NCCC3(CCCCC3)S2)cc1Cl` returned a logD of 2.54. The same measure for `c1ccc(NC2=NCCC3(CCCCC3)S2)cc1`: 1.27. The same measure for `CC(C)c1ccc(NC2=NCCC3(CCCCC3)S2)cc1`: 1.75; for `Brc1ccc(NC2=NCCC3(CCCCC3)S2)cc1`: 2.43. The same measure for `Cc1ccc(NC2=NCCC3(CCCCC3)S2)cc1`: 1.88.
